Test results taken from patent US20250064992A1, “IMAGING METHOD FOR DESIGNER RECEPTOR, ANTAGONIST OR AGONIST, PHARMACEUTICAL, AND COMPANION DIAGNOSTIC AGENT” (priority 2018, published 2025).

Assays:
hM3D receptor [1] = target: T1, hM3D receptor (Homo sapiens, UniProt P20309, A239G/Y149C); assay: 18F-FDG PET glucose metabolism image after C22b 0.1 mg/kg, hM3D expressed in left amygdala; assay type: in vivo; conditions: Macaca mulatta
T1 construct: expressed in transfected cells; host or cells: neurons of the left amygdala of live Macaca mulatta, transduced with AAV2-CMV-hM3D
T1 sequence (P20309 whole entry Y149C/A239G, the tested form may be a part): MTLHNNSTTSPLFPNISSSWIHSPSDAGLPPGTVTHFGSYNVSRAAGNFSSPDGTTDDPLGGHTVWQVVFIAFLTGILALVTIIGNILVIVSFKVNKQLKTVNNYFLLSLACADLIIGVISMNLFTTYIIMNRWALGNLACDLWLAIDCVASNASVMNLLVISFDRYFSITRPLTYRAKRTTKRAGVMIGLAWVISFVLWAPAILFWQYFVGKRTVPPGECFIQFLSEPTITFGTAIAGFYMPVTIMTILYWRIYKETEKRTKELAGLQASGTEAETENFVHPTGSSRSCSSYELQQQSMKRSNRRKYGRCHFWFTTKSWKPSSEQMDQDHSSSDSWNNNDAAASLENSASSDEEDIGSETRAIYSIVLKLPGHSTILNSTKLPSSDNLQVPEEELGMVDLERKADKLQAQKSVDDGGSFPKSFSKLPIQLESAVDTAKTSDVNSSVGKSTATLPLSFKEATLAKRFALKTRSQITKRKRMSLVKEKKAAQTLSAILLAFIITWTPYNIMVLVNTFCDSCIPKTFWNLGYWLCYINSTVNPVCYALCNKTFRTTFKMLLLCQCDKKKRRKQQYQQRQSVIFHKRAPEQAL
Procedure: On the day 65 days after the AAV vector was injected, a C22b compound (0.1 mg/kg) was intravenously administered to the same Macaca mulatta as in Example 3 under isoflurane anesthesia, 1 minute later, ^18F-FDG (263 MBq) was intravenously administered, and then subjected to PET scanning for 90 minutes. Note that, here, the C22b compound was HY-42110 (manufactured by MedChem Express) which was the compound represented by Formula (III) in which R^1 was methyl, X was imino, and R^2 was hydrogen.
A glucose metabolism image (whole Brain Activity) when an average in the whole brain was determined as 100% was created from PET data integrated for 90 minutes.

hM3D receptor [2] = target: T1, hM3D receptor; assay: 18F-FDG PET glucose metabolism, C22b 1 μg/kg versus solvent, one-way repeated measures ANOVA, hM3D in left amygdala; assay type: in vivo, monkey; conditions: Macaca mulatta
Procedure: Then, the AAV vector was injected into Macaca mulatta different from in Example 3 (male, 3 kg) in the same manner as in Example 3. On the day 70 days after, a C22b compound solution (1 μg/kg) or a solvent was intravenously administered under isoflurane anesthesia, 1 minute later, ^18F-FDG (224 to 286 MBq) was intravenously administered, and then subjected to PET scanning for 120 minutes. The process was performed four times for each intravenous dose. Note that the solvent was the same as a solvent used for the C22b compound solution (solvent: 0.1 mL/kg of saline containing 1% dimethyl sulfoxide and 5% Tween 20 (surfactant)).
A glucose metabolism image (whole brain activity) when an average of the whole brain was determined as 100% was created from PET data integrated from 30 minutes to 60 minutes after the administration. Then, a site in which the C22b administration caused a statistically significant change compared to a solvent administration was analyzed by one-way repeated measures ANOVA using MATLAB (R2016a) and SPM12.

hM4D receptor [3] = target: T2, hM4D receptor (Homo sapiens, UniProt P08173, A203G/Y113C); conditions: Japanese macaque; for Selectivity (expressed region/unexpressed region): hM4D, ratio of tracer amount per volume; for hM4D-expressed region amount of uptake of tracer: right putamen, PET 30 to 90 minutes after administration
Procedure: (§1) The [^11C]C22b (Example 2) and [^11C]clozapine ([^11C]CLZ, Comparative Example 1) were compared for a property of visualizing hM4D expressed in the Japanese macaque used in Example 1. The hM4D receptor was expressed in the same manner as in Example 1.
(§2) An average image integrated from 30 to 90 minutes after administration of a tracer was created based on a standardized uptake value (SUV) and an amount of uptake in the brain was calculated from PET imaging taken from 30 to 90 minutes after the administration in the frontal plane including the right putamen in which the hM4D was expressed.

hM4D receptor [4] = conditions: Japanese macaque, PET 30 to 90 minutes after administration; for Whole brain amount of uptake of tracer: SUV; for Control region (hM4D-unexpressed region) amount of uptake of tracer: left putamen
Procedure: as §1, §2

hM4D [5] = target: T3, hM4D (Homo sapiens, UniProt P08173, A203G/Y113C); assay: PET imaging of axon terminal (substantia nigra pars reticulata), projection target of hM4D-expressing nerve cell in right putamen; assay type: in vivo; conditions: Japanese macaque, PET average image 30 to 90 minutes after tracer
T3 construct: expressed in transfected cells; host or cells: neurons of the right putamen of a live Japanese macaque, transduced with AAV2-CMV-hM4D
T3 sequence (P08173 1-479 Y113C/A203G): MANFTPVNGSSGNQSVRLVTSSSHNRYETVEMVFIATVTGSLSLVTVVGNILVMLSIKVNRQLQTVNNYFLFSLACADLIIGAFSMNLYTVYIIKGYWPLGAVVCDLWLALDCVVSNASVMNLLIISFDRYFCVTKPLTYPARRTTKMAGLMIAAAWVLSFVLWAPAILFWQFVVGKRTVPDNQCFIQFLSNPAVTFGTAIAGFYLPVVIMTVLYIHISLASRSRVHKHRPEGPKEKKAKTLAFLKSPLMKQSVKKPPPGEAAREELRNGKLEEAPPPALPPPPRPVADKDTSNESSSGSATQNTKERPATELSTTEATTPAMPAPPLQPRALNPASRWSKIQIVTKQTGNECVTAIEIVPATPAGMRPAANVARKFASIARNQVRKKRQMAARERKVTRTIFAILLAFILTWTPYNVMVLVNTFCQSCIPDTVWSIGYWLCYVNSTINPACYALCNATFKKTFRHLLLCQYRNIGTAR
Procedure: (§3) Specifically, the [^11C]C22b was exogenously administered as a tracer in the same manner as in Example 1 and subjected to PET scanning for 90 minutes.
(§4) Specifically, the compound represented by […] ([^11C]C22b) was exogenously administered as a tracer and subjected to PET scanning for 90 minutes.

hM4D [6] = assay: as above; assay type: in vivo; conditions: Japanese macaque, PET average image 30 to 90 minutes after tracer
Procedure: as §3, §4

hM4D receptor [7] = assay: PET imaging with radiolabeled tracer, ligand binding potential image (cerebellum as reference region), hM4D expressed in right putamen; assay type: in vivo; conditions: Japanese macaque, PET 90 minutes, cerebellum BP determined as 1, non-injection region
Procedure: (§5) The head of Japanese macaque (male/5.5 kg) was fixed to a stereotaxic instrument under general anesthesia, and 6 μL of an adeno-associated virus (AAV) vector (AAV2-CMV-hM4D) for expressing an hM4D receptor in a nerve cell-specific manner was injected for 12 minutes by a Hamilton syringe (10 μL) into a middle portion of the right putamen read from a magnetic resonance imaging (MRI) image taken in advance. Note that, here, the CMV was a promotor for gene expression.
(§6) On the day 427 days after the injection, a compound represented by Formula (II) (hereinafter may be referred to as [^11C]C22b) (364 MBq) serving as a radiolabeled tracer was intravenously administered under isoflurane anesthesia and subjected to PET scanning for 90 minutes.
(§7) An image of a ligand binding potential was created from PET data integrated for 90 minutes using the cerebellum as a reference region (the binding potential (BP) in the cerebellum was determined as 1).

hM3D receptor [8] = target: T1, hM3D receptor; assay: PET imaging with radiolabeled tracer, ligand binding potential image (cerebellum as reference region), hM3D expressed in left amygdala; assay type: in vivo; conditions: Macaca mulatta
Procedure: as §5, with “Macaca mulatta (male/4.2” for “Japanese macaque (male/5.5”, “3” for “and 6”, “(AAV2-CMV-hM3D)” for “(AAV2-CMV-hM4D)”, “hM3D” for “hM4D”, “left amygdala” for “right putamen”
(§8) On the day 57 days after the injection, the [^11C]C22b (277 MBq) serving as a radiolabeled tracer was intravenously administered under isoflurane anesthesia and subjected to PET scanning for 90 minutes.
(§9) An image of a ligand binding potential was created from PET data integrated for 90 minutes using the cerebellum as a reference region (the binding potential (BP) of the cerebellum was determined as 1). A portion shown by an arrow in FIG. 6 represents the left amygdala into which the AAV vector has been injected.

hM3D receptor [9] = assay: as above; assay type: in vivo; conditions: Macaca mulatta, PET 90 minutes, cerebellum BP determined as 1, non-injection region
Procedure: as §5, with “Macaca mulatta (male/4.2” for “Japanese macaque (male/5.5”, “3” for “and 6”, “(AAV2-CMV-hM3D)” for “(AAV2-CMV-hM4D)”, “hM3D” for “hM4D”, “left amygdala” for “right putamen”
as §8, §9

hM3D receptor [10] = target: T1, hM3D receptor; assay type: in vivo; conditions: Macaca mulatta
Procedure: as §5, with “Macaca mulatta (male/4.2” for “Japanese macaque (male/5.5”, “3” for “and 6”, “(AAV2-CMV-hM3D)” for “(AAV2-CMV-hM4D)”, “hM3D” for “hM4D”, “left amygdala” for “right putamen”
as §8

hM3D receptor [11] = assay type: in vivo; conditions: Macaca mulatta
Procedure: as §5, with “Macaca mulatta (male/4.2” for “Japanese macaque (male/5.5”, “3” for “and 6”, “(AAV2-CMV-hM3D)” for “(AAV2-CMV-hM4D)”, “hM3D” for “hM4D”, “left amygdala” for “right putamen”
as §8

hM4D receptor [12] = target: T2, hM4D receptor; assay: PET imaging with radiolabeled tracer, ligand binding potential image (cerebellum as reference region), hM4D expressed in right putamen; assay type: in vivo; parameters: expressed in transfected cells; host or cells: neurons of the right putamen of a live Japanese macaque, transduced with AAV2-CMV-hM4D; conditions: Japanese macaque
Procedure: as §5, §6, §7

SMILES	glucose metabolism in left amygdala (AAV injected) relative to control region (right amygdala) (hM3D receptor [1]; C22b 0.1 mg/kg i.v., 18F-FDG PET 90 minutes) [times]	action at hM3D receptor (hM3D receptor [1]; glucose metabolism activated in hM3D-expressing left amygdala)	t-value for the AAV vector injected region (one-way repeated measures ANOVA) (hM3D receptor [2]; C22b 1 μg/kg i.v. vs solvent, left amygdala)	glucose metabolism activity in left amygdala, C22b versus solvent administration (hM3D receptor [2]; C22b 1 μg/kg i.v., 18F-FDG PET 30 to 60 minutes, uncorrected p<0.001)	Selectivity (expressed region/unexpressed region) (hM4D receptor [3])	hM4D-expressed region amount of uptake of tracer (hM4D receptor [3]) [g/cc]	Whole brain amount of uptake of tracer (hM4D receptor [4]) [g/cc]	Control region (hM4D-unexpressed region) amount of uptake of tracer (hM4D receptor [4]) [g/cc]	visualisation of hM4D in the axon terminal (substantia nigra pars reticulata) (hM4D [5])	binding to other nerve cells or brain tissues (off-target) (hM4D [6])	binding potential in control region (left putamen) (hM4D receptor [7])	binding potential in the left amygdala into which the AAV vector had been injected (hM3D receptor [8]; i.v. tracer 277 MBq, PET 90 minutes, cerebellum BP determined as 1, hM3D-expressed region)	binding potential of injected region relative to non-injection region (hM3D receptor [8]; left amygdala (hM3D) vs right amygdala) [times]	binding potential in control region (right amygdala) (hM3D receptor [9])	Selectivity (expressed region/unexpressed region) (hM3D receptor [10]; hM3D, ratio of tracer amount per volume)	hM3D-expressed region amount of uptake of tracer (hM3D receptor [10]; left amygdala) [g/cc]	Whole brain amount of uptake of tracer (hM3D receptor [11]) [g/cc]	Control region (hM3D-unexpressed region) amount of uptake of tracer (hM3D receptor [11]; opposite region) [g/cc]	binding potential in the right putamen into which the AAV vector had been injected (hM4D receptor [12]; i.v. tracer 364 MBq, PET 90 minutes, cerebellum BP determined as 1, hM4D-expressed region)	binding potential of injected region relative to non-injection region (hM4D receptor [12]; right putamen (hM4D) vs left putamen) [times]
CN1CCN(C2=Nc3ccccc3Nc3ccccc32)CC1 [C22b]	1.88	acted as an agonist	> 5.2	significantly high	–	–	–	–	–	–	–	–	–	–	–	–	–	–	–	–
CN1CCN(C2=Nc3cc(Cl)ccc3Nc3ccccc32)CC1 [[^11C]clozapine, [^11C]8-chloro-11-(4-methylpiperazine-1-yl)-5H-dibenzo[b,e] [1,4]diazepine, reference compound]	–	–	–	–	1.25	5.73	3.24	4.57	hM4D was confirmed to be expressed in the axon terminal	also allowed to bind to nerve cells other than the nerve cell of interest or brain tissues to some extent	–	–	–	–	–	–	–	–	–	–
[11CH3]N1CCC(C2=Nc3ccccc3Nc3ccccc32)CC1 [[^11C]C22b]	–	–	–	–	2.31	6.32	2.47	2.74	hM4D was confirmed to be expressed in the axon terminal	–	0.28	1.05	3.4	0.31	1.45	3.77	2.42	2.60	3.07	11
